Measurements as given in patent US20230210797A1, “PREVENTING AND TREATING HYPOGLYCEMIA” (DIAMYD MEDICAL AB, priority 2019, published 2023).

System: cortisol
Test: Hypoglycemic clamp: plasma cortisol levels
Type: in vivo, human
Conditions: C-peptide undetectable
Method: In order to evaluate the counterregulatory hormone response to hypoglycemia, a hypoglycemic clamp will be performed. The Hypoglycemic Clamp must be performed according to the instructions in the Operations Manual. (Appendix 3)
The patient should: • Come to the study site following an overnight fast (>10 hours), i.e. the patient may not eat but is permitted to drink water • Not have taken the Remygen and, if applicable, Alprazolam dose in the morning • Not take short acting/direct acting insulin within 6 hours before the investigation. • The patient is allowed to take base-insulin day/night before, but not in the morning before the investigation.
Patients with CSII (insulin pump) must continue with their basal dose insulin, but not add bolus dose during the last 6 hours before the investigation.
If a patient has a blood sugar level <4 mmol/L in the morning of the scheduled visit, the patient is allowed to take dextrose tablets and then come to the study site. The patient is allowed to perform the investigation if the blood sugar level is >4 mmol/L.
In the dose-escalation part of the study, the patient will take study drug 30 min prior to start of the hypoglycemic clamp. In the main study, the study drug will instead be taken after finalization of the hypoglycemic clamp. Baseline blood samples will be obtained for glucose, glucagon, epinephrine, norepinephrine, growth hormone and cortisol. The clamp will then be initiated by an intravenous insulin infusion at a rate of 2 mU×kg^−1×min^−1. Glucose 100 mg/ml will then be administered in variable infusion rates to clamp the blood glucose concentration at 5.5 mmol/land then at 2.5 mmol/land kept stable for 30 min. Blood glucose will be evaluated repeatedly in order to find the optimal glucose infusion rate. Blood sampling to determined levels of counterregulatory hormones as described above will be performed at each of these target levels when a stable glucose concentration has been reached. The insulin infusion will thereafter be terminated and the patient is allowed to eat and will be observed until normoglycemia is achieved. If necessary, additional glucose administration will be given to allow blood glucose concentrations to normalize.
Only patients with c-peptide levels that were undetectable (in a standard assay, i.e. <0.01 nmol/L) are included (5 of 6) in the data below.
Plasma levels of glucagon, cortisol, epinephrine, growth hormone and glucose were measured at baseline (increased glucose in T1D subjects). Plasma glucose was first lowered to normoglycemic levels (5.5 mmol/L) and hormone levels monitored, and then to hypoglycemic levels (2.5 mmol/L) and hormone levels monitored. Difference was calculated as a measurement of the response to hypoglycemia.

[1] = Visit 5, 200 mg GABA per day, Event 2.5 mmol/L
[2] = Visit 5, 200 mg GABA per day, Event 5.5 mmol/L
[3] = Visit 5, 200 mg GABA per day, Event Baseline
[4] = Visit 5, 200 mg GABA per day, Event Diff 2.5-5.5 mmol/L
[5] = Visit 7, 600 mg GABA per day, Event 2.5 mmol/L
[6] = Visit 7, 600 mg GABA per day, Event 5.5 mmol/L
[7] = Visit 7, 600 mg GABA per day, Event Baseline
[8] = Visit 7, 600 mg GABA per day, Event Diff 2.5-5.5 mmol/L
[9] = Visit 9, 1200 mg GABA per day, Event 2.5 mmol/L
[10] = Visit 9, 1200 mg GABA per day, Event 5.5 mmol/L
[11] = Visit 9, 1200 mg GABA per day, Event Baseline
[12] = Visit 9, 1200 mg GABA per day, Event Diff 2.5-5.5 mmol/L

## NCCCC(=O)O [GABA, Gamma-amino butyric acid]
[1]
  Cortisol levels, Change from baseline, Mean (SD): 49.6 nmol/L
  Cortisol levels, Change from baseline, Median (Min, Max): 40.0 nmol/L
  Cortisol levels, Observed value, Mean (SD): 356.2 nmol/L
  Cortisol levels, Observed value, Median (Min, Max): 334.0 nmol/L
[2]
  Cortisol levels, Change from baseline, Mean (SD): -141.8 nmol/L
  Cortisol levels, Change from baseline, Median (Min, Max): -179.0 nmol/L
  Cortisol levels, Observed value, Mean (SD): 198.8 nmol/L
  Cortisol levels, Observed value, Median (Min, Max): 176.0 nmol/L
[3]
  Cortisol levels, Change from baseline, Mean (SD): -198.8 nmol/L
  Cortisol levels, Change from baseline, Median (Min, Max): -196.0 nmol/L
  Cortisol levels, Observed value, Mean (SD): 215.0 nmol/L
  Cortisol levels, Observed value, Median (Min, Max): 213.0 nmol/L
[4]
  Cortisol levels, Change from baseline, Mean (SD): 191.4 nmol/L
  Cortisol levels, Change from baseline, Median (Min, Max): 125.0 nmol/L
  Cortisol levels, Observed value, Mean (SD): 157.4 nmol/L
  Cortisol levels, Observed value, Median (Min, Max): 162.0 nmol/L
[5]
  Cortisol levels, Change from baseline, Mean (SD): 51.8 nmol/L
  Cortisol levels, Change from baseline, Median (Min, Max): 36.0 nmol/L
  Cortisol levels, Observed value, Mean (SD): 358.4 nmol/L
  Cortisol levels, Observed value, Median (Min, Max): 360.0 nmol/L
[6]
  Cortisol levels, Change from baseline, Mean (SD): -157.0 nmol/L
  Cortisol levels, Change from baseline, Median (Min, Max): -185.0 nmol/L
  Cortisol levels, Observed value, Mean (SD): 183.6 nmol/L
  Cortisol levels, Observed value, Median (Min, Max): 166.0 nmol/L
[7]
  Cortisol levels, Change from baseline, Mean (SD): -222.6 nmol/L
  Cortisol levels, Change from baseline, Median (Min, Max): -217.0 nmol/L
  Cortisol levels, Observed value, Mean (SD): 191.2 nmol/L
  Cortisol levels, Observed value, Median (Min, Max): 189.0 nmol/L
[8]
  Cortisol levels, Change from baseline, Mean (SD): 208.8 nmol/L
  Cortisol levels, Change from baseline, Median (Min, Max): 141.0 nmol/L
  Cortisol levels, Observed value, Mean (SD): 174.8 nmol/L
  Cortisol levels, Observed value, Median (Min, Max): 194.0 nmol/L
[9]
  Cortisol levels, Change from baseline, Mean (SD): 6.6 nmol/L
  Cortisol levels, Change from baseline, Median (Min, Max): 29.0 nmol/L
  Cortisol levels, Observed value, Mean (SD): 313.2 nmol/L
  Cortisol levels, Observed value, Median (Min, Max): 285.0 nmol/L
[10]
  Cortisol levels, Change from baseline, Mean (SD): -117.2 nmol/L
  Cortisol levels, Change from baseline, Median (Min, Max): -115.0 nmol/L
  Cortisol levels, Observed value, Mean (SD): 223.4 nmol/L
  Cortisol levels, Observed value, Median (Min, Max): 193.0 nmol/L
[11]
  Cortisol levels, Change from baseline, Mean (SD): -196.0 nmol/L
  Cortisol levels, Change from baseline, Median (Min, Max): -191.0 nmol/L
  Cortisol levels, Observed value, Mean (SD): 217.8 nmol/L
  Cortisol levels, Observed value, Median (Min, Max): 226.0 nmol/L
[12]
  Cortisol levels, Change from baseline, Mean (SD): 123.8 nmol/L
  Cortisol levels, Change from baseline, Median (Min, Max): 83.0 nmol/L
  Cortisol levels, Observed value, Mean (SD): 89.8 nmol/L
  Cortisol levels, Observed value, Median (Min, Max): -10.0 nmol/L
